The OligoGym collection
“And” between values parts separate entries of the source, which are not always exact repeats. Equal values may be shown once. After the bases stand the sugars from the 5' end (letter, count) and the backbone: PS all phosphorothioate, else s phosphorothioate and o phosphodiester by linkage. Methylation of C is not given here. e = 2'-O-(2-methoxyethyl) (MOE); k = constrained ethyl (cEt); d = 2'-deoxy (DNA)

Biological target: IRF4
Conditions: ASO

Sequence	target mRNA inhibition (MM.1R, 1 µM)	target mRNA inhibition (SK-MEL-28, 4 µM)	also measured
TGAGATGCGGAGGTTC (sugars k3 d10 k3, PS)	33% and 27%		
TGATAAAGGCTGAACT (sugars k3 d10 k3, PS)		41%	
TGATAGCTGAGCTGAT (sugars kddddddddddkekek, PS)	22%		
TGATGGAGAAACGAGC (sugars k3 d10 k3, PS)	-2%		
TGATGTGATAGCTGAG (sugars kdddddddddkekeke, PS)	47%		
TGCATAGTGATGAGAT (sugars k3 d10 k3, PS)		37%	
TGCCAAAGAGCCCAAT (sugars k3 d10 k3, PS)	-19%		
TGCCACAGTTGAACCC (sugars k3 d10 k3, PS)		50%	
TGCCAGTTCCTTGTGA (sugars k3 d10 k3, PS)	-2%		
TGCCCAATACATATCC (sugars k3 d10 k3, PS)		59%	
TGCCGAACTCTCCGCC (sugars k3 d10 k3, PS)		43%	
TGCCTTACCTGACAAG (sugars k3 d10 k3, PS)	4%		
TGCCTTGTGACATAAA (sugars k3 d10 k3, PS)		45%	
TGCTAAAGGAGTGCAG (sugars k3 d10 k3, PS)	-17%		
TGCTAGATTCTCCCTG (sugars k3 d10 k3, PS)		33%	
TGCTAGGATTCCTAAC (sugars k3 d10 k3, PS)		26%	
TGCTGATGTGTTCTGG (sugars k3 d10 k3, PS)		67% and 58%	
TGCTTGAATTCCTTGA (sugars k3 d10 k3, PS)	23% and 25%	67%	target mRNA inhibition (MM.1R, 0.0625 µM): -6% and -14%; target mRNA inhibition (MM.1R, 0.074 µM): 13%; target mRNA inhibition (MM.1R, 0.222 µM): 12%; target mRNA inhibition (MM.1R, 0.25 µM): 1% and -8%; target mRNA inhibition (MM.1R, 0.666 µM): 23%; target mRNA inhibition (MM.1R, 2 µM): 39%; target mRNA inhibition (MM.1R, 4 µM): 53% and 68%
TGCTTGAGGTTTTCCT (sugars k2 d9 e3 k2, PS)	32%		
TGCTTGAGGTTTTCCT (sugars kkdddddddddekeke, PS)	45%		
TGCTTGAGGTTTTCCT (sugars kkdddddddddkdkdk, PS)	45%		
TGCTTTGCAGCATTGG (sugars k3 d10 k3, PS)	30%		
TGGACACTTTTAGAGA (sugars k3 d10 k3, PS)		72%	
TGGACCCACGAAGATT (sugars k3 d10 k3, PS)		38%	
TGGCAACCATTTTCAC (sugars k3 d10 k3, PS)		7%	
TGGCACGAGGAAGCAT (sugars k3 d10 k3, PS)		46%	

Sequence	target mRNA inhibition (MM.1R, 1 µM)	target mRNA inhibition (SK-MEL-28, 4 µM)	also measured
TGGCAGTGGAGCTCCA (sugars k3 d10 k3, PS)		46%	
TGGCCACAGAGGACTT (sugars k3 d10 k3, PS)		33%	
TGGGATTATATACTGG (sugars k2 d9 e3 k2, PS)	54%		
TGGGATTATATACTGG (sugars kddddddddddkekek, PS)	43%		
TGGTACACCTCTTCAC (sugars k3 d10 k3, PS)		32%	
TGGTAGGTCAAACTCC (sugars k3 d10 k3, PS)		-13%	
TGGTTCTCTATAGTGT (sugars k3 d10 k3, PS)		71%	
TGGTTGGCTGGTCTTT (sugars k2 d9 e3 k2, PS)	40%		
TGGTTGGCTGGTCTTT (sugars kkddddddddddkeke, PS)	80% and 68%		target mRNA inhibition (MM.1R, 0.0625 µM): 41%; target mRNA inhibition (MM.1R, 0.25 µM): 56%; target mRNA inhibition (MM.1R, 4 µM): 85%
TGTAACAGGCTATCAG (sugars k3 d10 k3, PS)		31%	
TGTAACTGACTAACAG (sugars k3 d10 k3, PS)	-31%		
TGTAAGTGATAGGTAT (sugars k3 d10 k3, PS)		53%	
TGTAGAAGCCCACAAG (sugars k3 d10 k3, PS)	-7%		
TGTAGTATGAGAAACG (sugars k2 d9 e3 k2, PS)	7%		
TGTAGTATGAGAAACG (sugars k3 d10 k3, PS)		69%	
TGTAGTATGAGAAACG (sugars kkdddddddddekeke, PS)	13%		
TGTCAAACCCTACTGG (sugars k3 d10 k3, PS)		23%	
TGTCAAACTATAATTG (sugars k3 d10 k3, PS)		15%	
TGTCAATACTGAAAGG (sugars k3 d10 k3, PS)		36%	
TGTGAACCTGCTAAAG (sugars k3 d10 k3, PS)	-10%		
TGTGAAGCATCCTTTC (sugars k3 d10 k3, PS)		45%	
TGTGATAGCTGAGCTG (sugars kdddddddddkekeke, PS)	18%		
TGTGCTTGCCAAGCCT (sugars kdddddddddkekeke, PS)	-3% and 16%		
TGTGCTTGCCAAGCCT (sugars kkddddddddddkeke, PS)	26% and 30%		
TGTGCTTGCCAAGCCT (sugars kkdddddddddkekek, PS)	2% and 18%		
TGTGTATTACTCTTAG (sugars k2 d9 e3 k2, PS)	41% and 24%		

Sequence	target mRNA inhibition (MM.1R, 1 µM)	target mRNA inhibition (SK-MEL-28, 4 µM)	also measured
TGTGTATTACTCTTAG (sugars k3 d10 k3, PS)	75% and 62%		target mRNA inhibition (MM.1R, 0.0625 µM): 3%; target mRNA inhibition (MM.1R, 0.25 µM): 20%; target mRNA inhibition (MM.1R, 4 µM): 93%
TGTGTATTACTCTTAG (sugars kkddddddddddkeke, PS)	51% and 39%		
TGTGTATTACTCTTAG (sugars kkdddddddddkdkdk, PS)	81% and 71% and 72%		target mRNA inhibition (H929, 0.04 µM): 40% and 47%; target mRNA inhibition (KMS11, 0.2 µM): 62% and 74%; target mRNA inhibition (MM.1R, 0.0625 µM): 54%; target mRNA inhibition (MM.1R, 0.25 µM): 62%; target mRNA inhibition (MM.1R, 4 µM): 91%
TGTTACCGATGCTTCA (sugars k2 d9 e3 k2, PS)	31% and 39%		
TGTTACCGATGCTTCA (sugars kddddddddddkekek, PS)	26% and 18%		
TGTTACCGATGCTTCA (sugars kkdddddddddkdkdk, PS)	35% and 26%		
TGTTACTTGCCACAGT (sugars k3 d10 k3, PS)		39%	
TTAAACAGTGCCCAAG (sugars k3 d10 k3, PS)		21%	
TTAAAGATGCCAGAGG (sugars k3 d10 k3, PS)		28%	
TTAAAGGAGTGCAGGA (sugars k3 d10 k3, PS)		16%	
TTAACCAATCCCAACA (sugars k3 d10 k3, PS)		30%	
TTAAGATTTATGTTCC (sugars k3 d10 k3, PS)		64%	
TTAATCTGTCTAAACC (sugars k3 d10 k3, PS)		16%	
TTACATCTTACTTCCC (sugars k3 d10 k3, PS)		42%	
TTACCATTTTCACAAG (sugars k4 d8 k4, PS)		7%	
TTACGAGAGGGTCTGA (sugars k3 d10 k3, PS)		51%	
TTACGCTTATTTTTCC (sugars k3 d10 k3, PS)	39%		
TTACTAACTGGCTTCC (sugars k3 d10 k3, PS)		49%	
TTACTAGGTGCTTGTT (sugars k3 d10 k3, PS)		50%	
TTACTCCGCTGAGTGG (sugars k3 d10 k3, PS)	-4%		
TTACTCTTAGGCACAT (sugars k3 d10 k3, PS)	44% and 45%		
TTACTGTTACCGATGC (sugars k3 d10 k3, PS)	26% and 35%		
TTACTTAGACATTACT (sugars k3 d10 k3, PS)		48%	
TTACTTCCCTGAGAAA (sugars k3 d10 k3, PS)		20%	
TTAGAATGCATAACAC (sugars k3 d10 k3, PS)		44%	
TTAGACTGACAGCCGA (sugars k3 d10 k3, PS)		53%	

Sequence	target mRNA inhibition (MM.1R, 1 µM)	target mRNA inhibition (SK-MEL-28, 4 µM)	also measured
TTAGAGGACAGTGACT (sugars k3 d10 k3, PS)		18%	
TTAGCCAATTCCTCCA (sugars k3 d10 k3, PS)	36% and 47%		
TTATACTGTCTGGTTA (sugars k3 d10 k3, PS)		44%	
TTATATACTGGTTGGT (sugars kkdddddddddekeke, PS)	64%		
TTATATACTGGTTGGT (sugars kkdddddddddkekek, PS)	50%		
TTATCATCCGAAAAGA (sugars k3 d10 k3, PS)	4%		
TTATCTTCCCTTAGGA (sugars k3 d10 k3, PS)		28%	
TTATGGACCACGCAGC (sugars k3 d10 k3, PS)		31%	
TTATGTTAGCCAATTC (sugars kkdddddddddkekek, PS)	11% and 19%		
TTATTAAGTCAATCAC (sugars k3 d10 k3, PS)		-1%	
TTCAACAGCACTGTCC (sugars k3 d10 k3, PS)		65%	
TTCACACTGCCGTGAT (sugars k3 d10 k3, PS)	-12%		
TTCACGCACCATTCAG (sugars k3 d10 k3, PS)		16%	
TTCAGACAGATGCAGC (sugars k3 d10 k3, PS)		62%	
TTCAGTTGTAAATGAG (sugars k3 d10 k3, PS)		56%	
TTCATGTAAAGTCTGC (sugars k3 d10 k3, PS)	57% and 55%		
TTCCAACAGGCGGACA (sugars k3 d10 k3, PS)		43%	
TTCCAACCTTTATGAT (sugars k3 d10 k3, PS)		7%	
TTCCAGCAAGACCTAA (sugars k3 d10 k3, PS)		27%	
TTCCATGCTTGTCTCG (sugars k3 d10 k3, PS)		62%	
TTCCGGGTGTGGCTGA (sugars k3 d10 k3, PS)	25%		
TTGAAAGATTCAGCCT (sugars k3 d10 k3, PS)		3%	
TTGAAATAAGCTCATC (sugars k3 d10 k3, PS)		33%	
TTGAAATGGAGCATCC (sugars k3 d10 k3, PS)		22%	
